# Measurements as given in PubChem BioAssay AID1259407 (Chemical Carcinogenesis Research Information System (CCRIS), 2018).
# “Also recorded” adds a separate entry of the source. Active and inactive are the calls of the source. How the calls were made is not given here.
# Test system: CCRIS mutagenicity, Ames/micronucleus/aberration tests
# Assay: CCRIS mutagenicity studies
# [1] = Test System: AMES SALMONELLA TYPHIMURIUM, Strain/Indicator: TA98, Metabolic Activation: NONE, Method: PREINCUBATION
# [2] = Test System: AMES SALMONELLA TYPHIMURIUM, Strain/Indicator: TA100, Metabolic Activation: NONE, Method: PREINCUBATION
# [3] = Test System: AMES SALMONELLA TYPHIMURIUM, Strain/Indicator: TA100, Metabolic Activation: RAT, LIVER, S-9, AROCLOR 1254, Method: PREINCUBATION
# [4] = Test System: AMES SALMONELLA TYPHIMURIUM, Strain/Indicator: TA1535, Metabolic Activation: NONE, Method: PREINCUBATION
# [5] = Test System: AMES SALMONELLA TYPHIMURIUM, Strain/Indicator: TA98, Metabolic Activation: NONE, Method: STANDARD PLATE
# [6] = Test System: AMES SALMONELLA TYPHIMURIUM, Strain/Indicator: TA98, Metabolic Activation: RAT, LIVER, S-9, AROCLOR 1254, Method: STANDARD PLATE
# [7] = Test System: AMES SALMONELLA TYPHIMURIUM, Strain/Indicator: TA100, Metabolic Activation: NONE, Method: STANDARD PLATE
compound,measurement,setting,value
CC(O)CO (configuration not stated),mutagenic call,"Test System: AMES SALMONELLA TYPHIMURIUM, Strain/Indicator: TA98, Metabolic Activation: HAMSTER, LIVER, S-9, AROCLOR 1254, Method: PREINCUBATION",inactive; negative
same,mutagenic call,[1],inactive; negative
same,mutagenic call,"Test System: AMES SALMONELLA TYPHIMURIUM, Strain/Indicator: TA98, Metabolic Activation: RAT, LIVER, S-9, AROCLOR 1254, Method: PREINCUBATION",inactive; negative
same,mutagenic call,"Test System: AMES SALMONELLA TYPHIMURIUM, Strain/Indicator: TA100, Metabolic Activation: HAMSTER, LIVER, S-9, AROCLOR 1254, Method: PREINCUBATION",inactive; negative
same,mutagenic call,[2],inactive; negative
same,mutagenic call,[3],inactive; negative
same,mutagenic call,"Test System: AMES SALMONELLA TYPHIMURIUM, Strain/Indicator: TA1535, Metabolic Activation: HAMSTER, LIVER, S-9, AROCLOR 1254, Method: PREINCUBATION",inactive; negative
same,mutagenic call,[4],inactive; negative
same,mutagenic call,"Test System: AMES SALMONELLA TYPHIMURIUM, Strain/Indicator: TA1535, Metabolic Activation: RAT, LIVER, S-9, AROCLOR 1254, Method: PREINCUBATION",inactive; negative
same,mutagenic call,"Test System: AMES SALMONELLA TYPHIMURIUM, Strain/Indicator: TA1537, Metabolic Activation: HAMSTER, LIVER, S-9, AROCLOR 1254, Method: PREINCUBATION",inactive; negative
same,mutagenic call,"Test System: AMES SALMONELLA TYPHIMURIUM, Strain/Indicator: TA1537, Metabolic Activation: NONE, Method: PREINCUBATION",inactive; negative
same,mutagenic call,"Test System: AMES SALMONELLA TYPHIMURIUM, Strain/Indicator: TA1537, Metabolic Activation: RAT, LIVER, S-9, AROCLOR 1254, Method: PREINCUBATION",inactive; negative
Clc1cncc(Cl)c1,mutagenic call,"Test System: AMES SALMONELLA TYPHIMURIUM, Strain/Indicator: TA97, Metabolic Activation: NONE, Method: STANDARD PLATE",inactive; negative
same,mutagenic call,"Test System: AMES SALMONELLA TYPHIMURIUM, Strain/Indicator: TA97, Metabolic Activation: RAT, LIVER, S-9, AROCLOR 1254, Method: STANDARD PLATE",inactive; negative
same,mutagenic call,[5],inactive; negative
same,mutagenic call,[6],inactive; negative
same,mutagenic call,[7],inactive; negative
same,mutagenic call,"Test System: AMES SALMONELLA TYPHIMURIUM, Strain/Indicator: TA100, Metabolic Activation: RAT, LIVER, S-9, AROCLOR 1254, Method: STANDARD PLATE",inactive; negative
same,mutagenic call,"Test System: AMES SALMONELLA TYPHIMURIUM, Strain/Indicator: TA102, Metabolic Activation: NONE, Method: STANDARD PLATE",inactive; negative
same,mutagenic call,"Test System: AMES SALMONELLA TYPHIMURIUM, Strain/Indicator: TA102, Metabolic Activation: RAT, LIVER, S-9, AROCLOR 1254, Method: STANDARD PLATE",inactive; negative
COc1ccc2nc(S(=O)Cc3ncc(C)c(OC)c3C)[nH]c2c1 (configuration not stated),mutagenic call,"End Point: IN VITRO MICRONUCLEUS, Test System: AHH-1 CELLS, Metabolic Activation: NONE",active; positive
same,mutagenic call,"End Point: IN VITRO MICRONUCLEUS, Test System: HEPATOCYTES, Species: RAT, Strain/Sex: SPRAGUE-DAWLEY/FEMALE, Metabolic Activation: NONE",active; positive; at 33 mg dose in 50% of rats
same,mutagenic call,"End Point: IN VITRO MICRONUCLEUS, Test System: HUMAN LYMPHOCYTES, Metabolic Activation: NONE",active; positive (in 4/5 donors); also recorded: active; positive; only at 18 ug/ml and 1 of 2 donors
same,mutagenic call,"End Point: IN VITRO MICRONUCLEUS, Test System: MCL-5 CELLS, Metabolic Activation: NONE",active; positive
same,mutagenic call,"End Point: IN VIVO MICRONUCLEUS, Test System: BONE MARROW POLYCHROMATIC ERYTHROCYTES, Species: RAT, Strain/Sex: SPRAGUE-DAWLEY/FEMALE, Route: ORAL",inactive; negative; some increase but not statistically significant
same,mutagenic call,"End Point: IN VIVO MICRONUCLEUS, Test System: HEPATOCYTES, Species: RAT, Strain/Sex: SPRAGUE-DAWLEY/FEMALE, Route: ORAL",active; positive
O=C1C=C(Cl)C(=O)C1(Cl)Cl,mutagenic call,[7],active; positive
O=[N+]([O-])c1cc2c(cc1O)[nH]c1ccccc12,mutagenic call,"Test System: AMES SALMONELLA TYPHIMURIUM, Strain/Indicator: TA98(NR), Metabolic Activation: NONE, Method: STANDARD PLATE",active; positive
same,mutagenic call,"Test System: AMES SALMONELLA TYPHIMURIUM, Strain/Indicator: TA98(NR), Metabolic Activation: RAT, LIVER, S-9, AROCLOR 1254, Method: STANDARD PLATE",active; positive
same,mutagenic call,[5],active; positive
same,mutagenic call,[6],active; positive
O=C(OC[C@@H]1O[C@H](OC(=O)c2cc(O)c(O)c(OC(=O)c3cc(O)c(O)c(O)c3)c2)[C@@H](OC(=O)c2cc(O)c(O)c(OC(=O)c3cc(O)c(O)c(O)c3)c2)[C@H](OC(=O)c2cc(O)c(O)c(OC(=O)c3cc(O)c(O)c(O)c3)c2)[C@H]1OC(=O)c1cc(O)c(O)c(OC(=O)c2cc(O)c(O)c(O)c2)c1)c1cc(O)c(O)c(OC(=O)c2cc(O)c(O)c(O)c2)c1,mutagenic call,[1],inactive; negative
same,mutagenic call,"Test System: AMES SALMONELLA TYPHIMURIUM, Strain/Indicator: TA98, Metabolic Activation: RAT LIVER S-9, Method: PREINCUBATION",inactive; negative
same,mutagenic call,[2],inactive; negative
same,mutagenic call,"Test System: AMES SALMONELLA TYPHIMURIUM, Strain/Indicator: TA100, Metabolic Activation: RAT LIVER S-9, Method: PREINCUBATION",inactive; negative
same,mutagenic call,"Test System: AMES SALMONELLA TYPHIMURIUM, Strain/Indicator: TA102, Metabolic Activation: RAT LIVER S-9, PHENOBARBITAL AND 5,6-BENZOFLAVONE, Method: STANDARD PLATE",inactive; negative
same,mutagenic call,"Test System: AMES SALMONELLA TYPHIMURIUM, Strain/Indicator: TA2638, Metabolic Activation: RAT LIVER S-9, PHENOBARBITAL AND 5,6-BENZOFLAVONE, Method: STANDARD PLATE",inactive; negative
same,mutagenic call,"Test System: E. COLI, Strain/Indicator: WP2 (PKM101), Metabolic Activation: RAT LIVER S-9, PHENOBARBITAL AND 5,6-BENZOFLAVONE, Method: STANDARD PLATE",inactive; negative
same,mutagenic call,"Test System: E. COLI, Strain/Indicator: WP2 UVRA (PKM101), Metabolic Activation: RAT LIVER S-9, PHENOBARBITAL AND 5,6-BENZOFLAVONE, Method: STANDARD PLATE",inactive; negative
Cc1c[nH]c(=S)[nH]c1=O,mutagenic call,"Test System: AMES SALMONELLA TYPHIMURIUM, Strain/Indicator: TA97, Metabolic Activation: HAMSTER, LIVER, S-9, AROCLOR 1254 (10 OR 30%), Method: PREINCUBATION",inactive; negative
same,mutagenic call,"Test System: AMES SALMONELLA TYPHIMURIUM, Strain/Indicator: TA97, Metabolic Activation: NONE, Method: PREINCUBATION",inactive; negative
same,mutagenic call,"Test System: AMES SALMONELLA TYPHIMURIUM, Strain/Indicator: TA97, Metabolic Activation: RAT, LIVER, S-9, AROCLOR 1254 (10 OR 30%), Method: PREINCUBATION",inactive; negative
same,mutagenic call,"Test System: AMES SALMONELLA TYPHIMURIUM, Strain/Indicator: TA98, Metabolic Activation: HAMSTER, LIVER, S-9, AROCLOR 1254 (10 OR 30%), Method: PREINCUBATION",inactive; negative
same,mutagenic call,[1],inactive; negative
same,mutagenic call,"Test System: AMES SALMONELLA TYPHIMURIUM, Strain/Indicator: TA98, Metabolic Activation: RAT, LIVER, S-9, AROCLOR 1254 (10 OR 30%), Method: PREINCUBATION",inactive; negative
same,mutagenic call,"Test System: AMES SALMONELLA TYPHIMURIUM, Strain/Indicator: TA100, Metabolic Activation: HAMSTER, LIVER, S-9, AROCLOR 1254 (10 OR 30%), Method: PREINCUBATION",inactive; negative
same,mutagenic call,[2],inactive; negative
same,mutagenic call,"Test System: AMES SALMONELLA TYPHIMURIUM, Strain/Indicator: TA100, Metabolic Activation: RAT, LIVER, S-9, AROCLOR 1254 (10 OR 30%), Method: PREINCUBATION",inactive; negative
same,mutagenic call,"Test System: AMES SALMONELLA TYPHIMURIUM, Strain/Indicator: TA1535, Metabolic Activation: HAMSTER, LIVER, S-9, AROCLOR 1254 (10 OR 30%), Method: PREINCUBATION",inactive; negative
same,mutagenic call,[4],inactive; negative
same,mutagenic call,"Test System: AMES SALMONELLA TYPHIMURIUM, Strain/Indicator: TA1535, Metabolic Activation: RAT, LIVER, S-9, AROCLOR 1254 (10 OR 30%), Method: PREINCUBATION",inactive; negative
Cc1cc2c(c3cc4ccccc4cc13)C=C[C@H](O)[C@H]2O,mutagenic call,[3],active; positive
